Results: PubChem BioAssay AID1963839 (Molecular Pharmacology Branch, DTP, NCI, 2024)

Test system: 817829-284-R-J1-PDC complex spheroid viability
Assay: Anticancer human tumor 817829-284-R-J1-PDC patient-derived colon adenocarcinoma cell line growth inhibition [POLQ]
Conditions: for IC50: curve of first compound; for viability, T/C: stronger effect = lower value
Method in brief: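 PDC + HUVEC + MSC complex spheroids; POLQ inhibitors ± partner drugs; top conc. at/near clinical Cmax, else 10 microM (SN-38 1 microM), half-log dilutions; 37 degrees C, 5% CO2.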

[1] = second compound 0.0316 µM, first compound 0.00316 µM
[2] = second compound 0.0316 µM, first compound 0.01 µM
[3] = second compound 0.0316 µM, first compound 0.0316 µM
[4] = second compound 0.0316 µM, first compound 0.1 µM
[5] = second compound 0.0316 µM, first compound 0.316 µM
[6] = second compound 0.0316 µM, first compound 1 µM
[7] = second compound 0.1 µM, first compound 0.00316 µM
[8] = second compound 0.1 µM, first compound 0.01 µM
[9] = second compound 0.1 µM, first compound 0.0316 µM
[10] = second compound 0.1 µM, first compound 0.1 µM
[11] = second compound 0.1 µM, first compound 0.316 µM
[12] = second compound 0.1 µM, first compound 1 µM
[13] = second compound 0.316 µM, first compound 0.00316 µM
[14] = second compound 0.316 µM, first compound 0.01 µM
[15] = second compound 0.316 µM, first compound 0.0316 µM
[16] = second compound 0.316 µM, first compound 0.1 µM
[17] = second compound 0.316 µM, first compound 0.316 µM
[18] = second compound 0.316 µM, first compound 1 µM
[19] = second compound 1 µM, first compound 0.00316 µM
[20] = second compound 1 µM, first compound 0.01 µM
[21] = second compound 1 µM, first compound 0.0316 µM
[22] = second compound 1 µM, first compound 0.1 µM
[23] = second compound 1 µM, first compound 0.316 µM
[24] = second compound 1 µM, first compound 1 µM
[25] = second compound 3.16 µM, first compound 0.00316 µM
[26] = second compound 3.16 µM, first compound 0.01 µM
[27] = second compound 3.16 µM, first compound 0.0316 µM
[28] = second compound 3.16 µM, first compound 0.1 µM
[29] = second compound 3.16 µM, first compound 0.316 µM
[30] = second compound 3.16 µM, first compound 1 µM
[31] = second compound 10 µM, first compound 0.00316 µM
[32] = second compound 10 µM, first compound 0.01 µM
[33] = second compound 10 µM, first compound 0.0316 µM
[34] = second compound 10 µM, first compound 0.1 µM
[35] = second compound 10 µM, first compound 0.316 µM
[36] = second compound 10 µM, first compound 1 µM
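Further: spheroids exposed to compounds for 7 days.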
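Wherever viability, T/C is given: 100% = DMSO vehicle-treated spheroids.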

## C=CCn1c(=O)c2cnc(Nc3ccc(N4CCN(C)CC4)cc3)nc2n1-c1cccc(C(C)(C)O)n1 + Nc1ccc(C#CCN(C(=O)Cc2ncc(C(F)(F)F)cc2C(F)(F)F)c2ccc(F)cc2)nn1
Second compound 0.0316 µM
  IC50: 0.258 µM
Second compound 0.1 µM
  IC50: 0.219 µM
Second compound 0.316 µM
  IC50: 0.214 µM
Second compound 1 µM
  IC50: 0.259 µM
Second compound 3.16 µM
  IC50: 0.198 µM
Second compound 10 µM
  IC50: 0.236 µM
[1]
  viability, T/C: 90.9%
[2]
  viability, T/C: 118%
[3]
  viability, T/C: 97.2%
[4]
  viability, T/C: 72.6%
[5]
  viability, T/C: 47%
[6]
  viability, T/C: 5.79%
[7]
  viability, T/C: 103%
[8]
  viability, T/C: 103%
[9]
  viability, T/C: 83.6%
[10]
  viability, T/C: 79.9%
[11]
  viability, T/C: 36%
[12]
  viability, T/C: 6.74%
[13]
  viability, T/C: 90.6%
[14]
  viability, T/C: 113%
[15]
  viability, T/C: 87.8%
[16]
  viability, T/C: 78%
[17]
  viability, T/C: 36.1%
[18]
  viability, T/C: 5.29%
[19]
  viability, T/C: 110%
[20]
  viability, T/C: 115%
[21]
  viability, T/C: 85.5%
[22]
  viability, T/C: 82.4%
[23]
  viability, T/C: 42.2%
[24]
  viability, T/C: 5.43%
[25]
  viability, T/C: 93.7%
[26]
  viability, T/C: 82.2%
[27]
  viability, T/C: 100%
[28]
  viability, T/C: 75.2%
[29]
  viability, T/C: 31.8%
[30]
  viability, T/C: 5.58%
[31]
  viability, T/C: 90.7%
[32]
  viability, T/C: 105%
[33]
  viability, T/C: 89.7%
[34]
  viability, T/C: 80.7%
[35]
  viability, T/C: 39.7%
[36]
  viability, T/C: 5.43%

## CC[C@@]1(O)C(=O)OCc2c1cc1n(c2=O)Cc2cc3c(CN(C)C)c(O)ccc3nc2-1 + Nc1ccc(C#CCN(C(=O)Cc2ncc(C(F)(F)F)cc2C(F)(F)F)c2ccc(F)cc2)nn1
Second compound 0.0316 µM
  IC50: 0.00846 µM
Second compound 0.1 µM
  IC50: 0.00972 µM
Second compound 0.316 µM
  IC50: 0.011 µM
Second compound 1 µM
  IC50: 0.00884 µM
Second compound 3.16 µM
  IC50: 0.012 µM
Second compound 10 µM
  IC50: 0.0068 µM
Second compound 0.0316 µM, first compound 0.000316 µM
  viability, T/C: 91.3%
Second compound 0.0316 µM, first compound 0.001 µM
  viability, T/C: 99%
[1]
  viability, T/C: 85.9%
[2]
  viability, T/C: 43.2%
[3]
  viability, T/C: 24.2%
[4]
  viability, T/C: 15.9%
Second compound 0.1 µM, first compound 0.000316 µM
  viability, T/C: 90.2%
Second compound 0.1 µM, first compound 0.001 µM
  viability, T/C: 86%
[7]
  viability, T/C: 88.2%
[8]
  viability, T/C: 48.9%
[9]
  viability, T/C: 20.9%
[10]
  viability, T/C: 17.3%
Second compound 0.316 µM, first compound 0.000316 µM
  viability, T/C: 106%
Second compound 0.316 µM, first compound 0.001 µM
  viability, T/C: 93.3%
[13]
  viability, T/C: 85%
[14]
  viability, T/C: 54.4%
[15]
  viability, T/C: 21.3%
[16]
  viability, T/C: 17.9%
Second compound 1 µM, first compound 0.000316 µM
  viability, T/C: 111%
Second compound 1 µM, first compound 0.001 µM
  viability, T/C: 115%
[19]
  viability, T/C: 86.6%
[20]
  viability, T/C: 45.5%
[21]
  viability, T/C: 24.4%
[22]
  viability, T/C: 15.7%
Second compound 3.16 µM, first compound 0.000316 µM
  viability, T/C: 95.1%
Second compound 3.16 µM, first compound 0.001 µM
  viability, T/C: 94.3%
[25]
  viability, T/C: 82%
[26]
  viability, T/C: 57.2%
[27]
  viability, T/C: 20.1%
[28]
  viability, T/C: 13.9%
Second compound 10 µM, first compound 0.000316 µM
  viability, T/C: 93.8%
Second compound 10 µM, first compound 0.001 µM
  viability, T/C: 91.2%
[31]
  viability, T/C: 62.1%
[32]
  viability, T/C: 43.2%
[33]
  viability, T/C: 25.6%
[34]
  viability, T/C: 15.1%

## CCc1c2c(nc3ccc(O)cc13)-c1cc3c(c(=O)n1C2)COC(=O)[C@]3(O)CC + Nc1ccc(C#CCN(C(=O)Cc2ncc(C(F)(F)F)cc2C(F)(F)F)c2ccc(F)cc2)nn1
Second compound 0.0316 µM
  IC50: < 0.00316 µM
Second compound 0.1 µM
  IC50: < 0.00316 µM
Second compound 0.316 µM
  IC50: < 0.00316 µM
Second compound 1 µM
  IC50: < 0.00316 µM
Second compound 3.16 µM
  IC50: < 0.00316 µM
Second compound 10 µM
  IC50: < 0.00316 µM
[1]
  viability, T/C: 22.5%
[2]
  viability, T/C: 14.5%
[3]
  viability, T/C: 14.1%
[4]
  viability, T/C: 9.79%
[5]
  viability, T/C: 5.25%
[6]
  viability, T/C: 3.01%
[7]
  viability, T/C: 20.9%
[8]
  viability, T/C: 17.8%
[9]
  viability, T/C: 12.8%
[10]
  viability, T/C: 8.52%
[11]
  viability, T/C: 4.76%
[12]
  viability, T/C: 2.98%
[13]
  viability, T/C: 18.2%
[14]
  viability, T/C: 19.1%
[15]
  viability, T/C: 11.2%
[16]
  viability, T/C: 7.52%
[17]
  viability, T/C: 4.9%
[18]
  viability, T/C: 2.95%
[19]
  viability, T/C: 22.2%
[20]
  viability, T/C: 21.4%
[21]
  viability, T/C: 14.4%
[22]
  viability, T/C: 7.16%
[23]
  viability, T/C: 4.75%
[24]
  viability, T/C: 2.54%
[25]
  viability, T/C: 15.1%
[26]
  viability, T/C: 16.2%
[27]
  viability, T/C: 13%
[28]
  viability, T/C: 7.06%
[29]
  viability, T/C: 4.44%
[30]
  viability, T/C: 2.95%
[31]
  viability, T/C: 21.7%
[32]
  viability, T/C: 17%
[33]
  viability, T/C: 10%
[34]
  viability, T/C: 7.06%
[35]
  viability, T/C: 3.78%
[36]
  viability, T/C: 2.98%

## CNCc1ccc(-c2[nH]c3cc(F)cc4c3c2CCNC4=O)cc1 + Nc1ccc(C#CCN(C(=O)Cc2ncc(C(F)(F)F)cc2C(F)(F)F)c2ccc(F)cc2)nn1
Second compound 0.0316 µM
  IC50: 6.74 µM
Second compound 0.1 µM
  IC50: 7.78 µM
Second compound 0.316 µM
  IC50: > 10 µM
Second compound 1 µM
  IC50: > 10 µM
Second compound 3.16 µM
  IC50: 7.27 µM
Second compound 10 µM
  IC50: 8.04 µM
[3]
  viability, T/C: 85.2%
[4]
  viability, T/C: 83.8%
[5]
  viability, T/C: 86.4%
[6]
  viability, T/C: 73.8%
Second compound 0.0316 µM, first compound 3.16 µM
  viability, T/C: 67.4%
Second compound 0.0316 µM, first compound 10 µM
  viability, T/C: 41.2%
[9]
  viability, T/C: 81%
[10]
  viability, T/C: 97%
[11]
  viability, T/C: 83%
[12]
  viability, T/C: 73.8%
Second compound 0.1 µM, first compound 3.16 µM
  viability, T/C: 65.3%
Second compound 0.1 µM, first compound 10 µM
  viability, T/C: 45.8%
[15]
  viability, T/C: 80.6%
[16]
  viability, T/C: 88.7%
[17]
  viability, T/C: 82.8%
[18]
  viability, T/C: 60.8%
Second compound 0.316 µM, first compound 3.16 µM
  viability, T/C: 65%
Second compound 0.316 µM, first compound 10 µM
  viability, T/C: 52.9%
[21]
  viability, T/C: 97.7%
[22]
  viability, T/C: 86.5%
[23]
  viability, T/C: 90.1%
[24]
  viability, T/C: 73.3%
Second compound 1 µM, first compound 3.16 µM
  viability, T/C: 74.3%
Second compound 1 µM, first compound 10 µM
  viability, T/C: 48%
[27]
  viability, T/C: 103%
[28]
  viability, T/C: 83.6%
[29]
  viability, T/C: 83.2%
[30]
  viability, T/C: 85.8%
Second compound 3.16 µM, first compound 3.16 µM
  viability, T/C: 83.6%
Second compound 3.16 µM, first compound 10 µM
  viability, T/C: 37.3%
[33]
  viability, T/C: 86.2%
[34]
  viability, T/C: 75.7%
[35]
  viability, T/C: 76.9%
[36]
  viability, T/C: 79.5%
Second compound 10 µM, first compound 3.16 µM
  viability, T/C: 75.2%
Second compound 10 µM, first compound 10 µM
  viability, T/C: 44.1%
